Measured values published in patent US11458142B2, “Compositions and methods for ameliorating pain” (The Board of Supervisors of Louisiana State University and …, priority 2017, dated 2022).
Several values for one entry are separate records, joined by “and”; a condition that tells them apart may be missing. Identical values can stand only once. Blank lines part the entries; values can stand above or below the compound they belong to.

Experiments:
CD1 male mice [1] = test: Blood creatinine functional assay; format: in vivo, mouse; settings: 600 mg/Kg PO, serum
CD1 male mice [2] = test: Acetic acid-induced abdominal writhing assay; format: in vivo, mouse; settings: for No. of writhes counted within a 10 min time interval, 25 min post drug administration, beginning 5 min after acetic acid injection: 75 mg/Kg body weight p.o., single animals, n = 7 (raw data for FIG. 1A); for number of writhes induced by injection of acetic acid: mean, vehicle only 42.3+/−7.2
Protocol: Two different assays were utilized to quantify the analgesic effects of the compounds. All tests were performed on CD1 male mice. […] In some embodiments, the vehicle can comprise Agent K, 0.2%, Bio-serve, or Labrafil 1944 (Gottefosee, France). Compound or vehicle was administered orally by lavage under brief halothane anesthesia to animals fasted overnight.
Acetic acid-induced abdominal writhing assay. Contraction of the abdominal muscle and stretching of the hind limbs is induced as a response to intraperitoneal (ip) injection of an acetic acid solution, as described Hendershot and Forsaith, 1959. In this model of visceral pain, abdominal contractions (writhing) is induced in mice by an ip injection of 0.4% acetic acid at a dose of 10 mL/Kg, 25 min after drug administration. The number of writhes is counted for 10 min beginning 5 min after acetic acid injection. […] Data is expressed as mean±SEM, n=7.

CD1 male mice [3] = test: Liver function assays (ALT, AST, ALP) in serum; format: in vivo, mouse; settings: 600 mg/kg PO
CYP3A4 = biological target: T1, CYP3A4 (Homo sapiens, UniProt P08684); test: VIVID CYP450 screening assay, CYP3A4; format: in vitro ADME; settings: probe CYP enzyme specific fluorogenic substrate (not named)
T1 construct: purchased Life Technologies, Invitrogen/Thermo Fisher Scientific; host or cells: insect cells (microsomes)
Protocol: (§1) The […]450 screening assay kit (Life Technologies, Invitrogen/Thermo Fisher Scientific) was used as an in vitro high throughput screening. Here, each compound was mixed with a master pre-mix comprising of CYP450 BACULOSOMES (which are microsomes prepared from insect cells expressing a specific human P450 isoenzyme), reagent and regeneration system, which contained glucose-6-phosphate and glucose-6-phosphate dehydrogenase. The mixture was pre-incubated at room temperature for 20 minutes. Following this, each CYP enzyme specific substrate and NADP^+ were added and the mixture incubated at room temperature for 30 minutes. The reaction was stopped by addition of 0.5 M Tris base. CYP activity was evaluated by measuring the fluorescence of the fluorescent metabolite generated from each CYP enzyme specific substrate.

HepaRG and hHEPs [4] = test: LDH cytotoxicity assay in hepatocytes; format: cell-based, human; settings: 500 μM and 1000 μM; time and dose-dependent
Protocol: (§2) HepaRG cells procured from Thermo Fisher Scientific (Invitrogen) are terminally differentiated hepatic cells, which are derived from a hepatic progenitor cell line that retains many characteristics of primary human hepatocytes. […] LDH assay. Using the Pierce LDH Cytotoxicity assay kit from Thermo Scientific, cells were incubated in presence of various drug compounds, followed by collection of the medium supernatant. Release of LDH was measured in 96 well plate formats. The absorbance was measured at 490 nm and 680 nm and the final result was absorbance observed at 680 nm subtracted from absorbance observed at 490 nm (A490 nm-[…] nm). GSH assay. Using the ThiolTracker Violet Glutathione Detection reagent from Molecular Probes (Invitrogen), after hepatocytes were incubated in the presence of various compounds, incubation medium was removed, cells rinsed with D-PBS conditioned medium followed by incubation with pre-warmed ThiolTracker Violet dye (working solution prepared as per manufacturer's instructions) for 30 minutes. Fluorescence was measured at the following wavelengths: excitation (404 nm) and emission (526 nm). The finalized result was expressed as relative fluorescence units (RFU), which indicates the cellular level of reduced glutathione (GSH) in intact cells.

CYP2D6 = biological target: T2, CYP2D6 (Homo sapiens, UniProt P10635); test: VIVID CYP450 screening assay, CYP2D6; format: in vitro ADME
T2 construct: purchased Life Technologies, Invitrogen/Thermo Fisher Scientific; host or cells: insect cells (microsomes)
Protocol: as §1

mouse = test: LPS-induced fever mouse model; format: in vivo; settings: versus ApAP, 2 h, 8 h and 10 h
CYP2E1 = biological target: T3, CYP2E1 (Homo sapiens, UniProt P05181); test: VIVID CYP450 screening assay, CYP2E1; format: in vitro ADME; settings: probe CYP enzyme specific fluorogenic substrate (not named)
T3 construct: purchased Life Technologies, Invitrogen/Thermo Fisher Scientific; host or cells: insect cells (microsomes)
Protocol: as §1

HepaRG and hHEPs [5] = test: GSH assay (ThiolTracker Violet) in hepatocytes; format: cell-based, human; settings: 500 μM and 1000 μM; time and dose-dependent
Protocol: as §2

CD1 male mice [6] = test: Tail-flick assay; format: in vivo, mouse; settings: 600 mg/Kg per os, 30 minutes post injection; versus ApAP
Protocol: Two different assays were utilized to quantify the analgesic effects of the compounds. All tests were performed on CD1 male mice. […] In some embodiments, the vehicle can comprise Agent K, 0.2%, Bio-serve, or Labrafil 1944 (Gottefosee, France). Compound or vehicle was administered orally by lavage under brief halothane anesthesia to animals fasted overnight. Tail-flick assay. Analgesic effect of drugs was determined by using the reaction time (latency) of mice to thermal stimulation of the tail tip. All animals (CD1 male mice) were fasted overnight (15 hours) and, their baseline tail flick latency (seconds) was recorded using an IITC Tail Flick Analgesia Meter. The tail of each mouse was exposed to a focused beam of light and the latency to remove the tail from the path of the stimulus were recorded electronically using a photoelectric cell of the IITC Tail Flick Analgesia Meter. The stimulus intensity was adjusted to produce baseline latencies of 3-6 seconds. […] At 30 minutes post injection, tail flick latency was recorded again to determine total change in latency. […] Data expressed as mean±SEM, n=10.

T1 sequence (P08684 whole entry): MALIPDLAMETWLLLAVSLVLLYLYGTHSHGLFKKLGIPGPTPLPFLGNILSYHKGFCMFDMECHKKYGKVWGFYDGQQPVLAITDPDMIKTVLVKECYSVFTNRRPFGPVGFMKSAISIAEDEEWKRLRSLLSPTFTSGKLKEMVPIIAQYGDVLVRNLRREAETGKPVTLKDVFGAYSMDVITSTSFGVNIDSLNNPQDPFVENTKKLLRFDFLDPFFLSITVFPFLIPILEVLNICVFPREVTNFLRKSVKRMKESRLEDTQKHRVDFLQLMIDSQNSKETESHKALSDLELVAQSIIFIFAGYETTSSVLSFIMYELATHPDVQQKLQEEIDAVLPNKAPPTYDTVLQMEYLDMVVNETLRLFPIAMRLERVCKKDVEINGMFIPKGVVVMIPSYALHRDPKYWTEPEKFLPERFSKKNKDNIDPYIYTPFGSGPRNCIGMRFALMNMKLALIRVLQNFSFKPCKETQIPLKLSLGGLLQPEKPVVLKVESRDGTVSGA
T2 sequence (P10635 whole entry): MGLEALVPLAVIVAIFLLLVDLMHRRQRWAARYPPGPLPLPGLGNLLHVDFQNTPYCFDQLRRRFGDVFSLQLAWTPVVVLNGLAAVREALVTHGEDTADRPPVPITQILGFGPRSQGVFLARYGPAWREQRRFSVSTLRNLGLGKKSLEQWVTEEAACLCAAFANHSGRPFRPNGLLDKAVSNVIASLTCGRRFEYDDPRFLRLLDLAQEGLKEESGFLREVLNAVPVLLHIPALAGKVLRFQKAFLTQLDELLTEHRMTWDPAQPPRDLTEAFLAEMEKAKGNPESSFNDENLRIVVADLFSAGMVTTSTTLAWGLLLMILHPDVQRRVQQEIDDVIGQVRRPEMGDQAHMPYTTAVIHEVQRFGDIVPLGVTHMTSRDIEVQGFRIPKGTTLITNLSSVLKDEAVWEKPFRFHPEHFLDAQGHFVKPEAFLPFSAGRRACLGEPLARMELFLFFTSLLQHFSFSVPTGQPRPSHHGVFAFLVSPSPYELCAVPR
T3 sequence (P05181 whole entry): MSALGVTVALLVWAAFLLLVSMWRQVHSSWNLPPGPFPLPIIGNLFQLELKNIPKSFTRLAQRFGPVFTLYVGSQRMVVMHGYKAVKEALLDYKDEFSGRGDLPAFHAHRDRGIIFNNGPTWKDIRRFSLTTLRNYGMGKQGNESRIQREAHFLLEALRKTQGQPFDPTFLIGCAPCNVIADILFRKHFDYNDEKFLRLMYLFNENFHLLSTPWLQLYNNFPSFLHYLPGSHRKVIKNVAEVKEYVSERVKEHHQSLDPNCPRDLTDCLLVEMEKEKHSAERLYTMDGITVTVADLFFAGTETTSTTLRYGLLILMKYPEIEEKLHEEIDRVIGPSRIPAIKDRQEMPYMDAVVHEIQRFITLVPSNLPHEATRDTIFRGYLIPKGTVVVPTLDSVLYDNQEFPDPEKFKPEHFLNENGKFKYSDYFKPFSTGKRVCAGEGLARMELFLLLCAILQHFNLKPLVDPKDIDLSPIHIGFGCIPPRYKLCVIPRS

blood creatinine levels (CD1 male mice [1]): increased levels of creatinine
Structure (SMILES): CC(=O)Nc1ccc(O)cc1 [ApAP, N-acetyl-para-aminophenol, reference compound]
No. of writhes counted within a 10 min time interval, 25 min post drug administration, beginning 5 min after acetic acid injection (CD1 male mice [2]): 11 and 12 and 14 and 15 and 16 (3×) | ALT, AST and AP enzyme activity (liver function tests) (CD1 male mice [3]): Increased levels

Structure (SMILES): CCN(CC)C(=O)c1ccccc1S(=O)(=O)NCC(=O)Nc1ccc(O)cc1 [SRP6d, 2-<[(4-Hydroxy-phenylcarbamoyl)-methyl]-sulfamoyl>-N,N-diethyl-benzamide]
inhibition at 30 min (CYP3A4): ~25% | lactate dehydrogenase (LDH) release (HepaRG and hHEPs [4]): consistently decreased | inhibitory effect for CYP2D6 (CYP2D6): marginal inhibitory effect | No. of writhes counted within a 10 min time interval, 25 min post drug administration, beginning 5 min after acetic acid injection (CD1 male mice [2]): 15 (3×) and 11 and 14 and 20 and 18 | number of writhes induced by injection of acetic acid (CD1 male mice [2]): 15.7+/−1.2 | antipyresis (temperature curves) (mouse): comparable antipyresis to ApAP | inhibition at 30 min (CYP2E1): ~25% | amount of reduced glutathione (GSH) (HepaRG and hHEPs [5]): increased | analgesia in tail flick test (latency) (CD1 male mice [6]): comparable significant analgesia

Structure (SMILES): CCCCNC(=O)c1ccccc1S(=O)(=O)NCC(=O)Nc1ccc(O)cc1 [SRP6i]
No. of writhes counted within a 10 min time interval, 25 min post drug administration, beginning 5 min after acetic acid injection (CD1 male mice [2]): 7 and 12 and 16 and 17 and 22 and 27 and 33

Structure (SMILES): COc1ccc(CNC(=O)c2ccccc2S(=O)(=O)NCC(=O)Nc2ccc(O)cc2)cc1 [SRP6j]
No. of writhes counted within a 10 min time interval, 25 min post drug administration, beginning 5 min after acetic acid injection (CD1 male mice [2]): 10 and 14 and 16 and 17 and 18 (2×) and 19

Structure (SMILES): O=C(CNS(=O)(=O)c1ccccc1C(=O)NC1CCCC1)Nc1ccc(O)cc1 [SRP6o]
No. of writhes counted within a 10 min time interval, 25 min post drug administration, beginning 5 min after acetic acid injection (CD1 male mice [2]): 11 and 14 and 16 and 17 (2×) and 18 and 24

Structure (SMILES): CC(C)CNC(=O)c1ccccc1S(=O)(=O)NCC(=O)Nc1ccc(O)cc1 [SRP6p]
No. of writhes counted within a 10 min time interval, 25 min post drug administration, beginning 5 min after acetic acid injection (CD1 male mice [2]): 14 (2×) and 17 and 24 and 26 and 29 and 30

inhibition at 30 min (CYP3A4): ~25% | inhibitory effect for CYP2D6 (CYP2D6): marginal inhibitory effect | inhibition at 30 min (CYP2E1): ~25% | amount of reduced glutathione (GSH) (HepaRG and hHEPs [5]): increased | melting point: 87 to 89 °C
Structure (SMILES): O=C(CNS(=O)(=O)c1ccccc1C(=O)NCCc1cccc(O)c1O)Nc1ccc(O)cc1 [SRP6r]
lactate dehydrogenase (LDH) release (HepaRG and hHEPs [4]): consistently decreased | No. of writhes counted within a 10 min time interval, 25 min post drug administration, beginning 5 min after acetic acid injection (CD1 male mice [2]): 9 and 12 and 18 and 20 and 25 and 26 (2×) | number of writhes induced by injection of acetic acid (CD1 male mice [2]): 9.5+/−4 | antipyresis (temperature curves) (mouse): comparable antipyresis to ApAP | analgesia in tail flick test (latency) (CD1 male mice [6]): comparable significant analgesia
